# According to patent US8410150B2, “Inhibitors of carnitine palmitoyltransferase and treating cancer” (University Health Network, priority 2007, dated 2013):
# Like-named read-outs stand apart in the source and are kept apart here.
# Experiments:
# Experiment in all cases: Cell growth inhibition, SRB assay
# Type in all cases: cell-based, human
# Settings in all cases: Homo sapiens
# [1] = test system: SW626
# Protocol: (§1) Human cancer cells (MCF-7, H358, H460, HCT116 p53^+/+, HCT116 p53^−/−, A172, PC-3, DU-145 and SW626) were maintained in DMEM medium containing 10% Fetal Bovine Serum (FBS) (Invitrogen, Burlington, ON, Canada) and normal cells HMEC, 184A1, NHBE and PrEC were cultured in MEGM, MEGM plus transferring and cholera toxin, BEGM and PrEGM supplemented with various growth factors (Cambrex, Charles city, IA, USA), respectively.
# (§2) Compounds were dissolved in DMSO and further diluted in cell culture medium for the experiments performed. Cells were seeded into 96-well plates with 1,500-5,000 cells/well according to cell growth rate. After 24 h, DMEM medium containing 10% FBS were changed to DMEM containing 3% FBS for cancer cells and additional 3% FBS were added into the culture medium for normal cells. The compound was added into the cell culture at the indicated concentrations, and the final concentration of DMSO was adjusted to a final concentration of 0.1%. Cells were subjected to either normoxic condition (20% O2) for 6 days or hypoxic condition (0.2% O2) for 2 days and then transferred to normoxic condition for 4 days. Cell viability was assessed by Sulforhodamine B (SRB) assay at Day 6.
# (§3) Sulforhodamine B (SRB) (Sigma, Oakville, ON, Canada) is a water-soluble dye that binds to the basic amino acids of the cellular proteins. Thus, colorimetric measurement of the bound dye provides an estimate of the total protein mass that is related to the cell number. The cells were fixed in situ by gently aspirating off the culture media and adding 50 ul of cold 10% trichloroacetic Acid (TCA) per well and incubated at 4° C. for 30-60 min. The plates were washed five times with water and allowed to air dry for 5 min. 50 ul of 0.4% (w/v) SRB dissolved in 1% (v/v) acetic acid were added into each well, plates were then incubated at RT for 30 min for staining, washed four times with 1% acetic acid to remove any unbound dye and then allowed to air dry for 5 min. Stain was solubilized with 100 ul of 10 mM Tris pH 10.5 per well. Absorbance was read at 570 nm on a spectrophotometer. GI50 (compound concentration required for 50% of growth inhibition) was calculated using GraphPad Prism 4.0 software (GraphPad Software, Inc., San Diego, Calif., USA).
# (§4) Cell viability of various cell lines treated with 3-carboxy-N,N,N-trimethyl-2-pentadecanamidopropan-1-aminium (“nPAC”) and compound of Examples S7, S63, S66, S90, S89, S67, S75 and S10 was also assessed in a manner as described above in Example 5.
# [2] = test system: H358
# Protocol: as §1, §2, §3, §4
# [3] = test system: MCF-7
# Protocol: as §1, §2, §3, §4
# [4] = test system: PC-3
# Protocol: as §1, §2, §3, §4
# [5] = test system: A172
# Protocol: as §1, §2, §3, §4
# [6] = Ovarian SW626, 3% FBS, read-out: GI50
# [7] = NCI-H358, 144 h, treated 6 days, SRB assay, mean±SD of 2 experiments (FIG. 1, 2), read-out: GI50 for H358
# [8] = NCI-H358, Lung H358, 3% FBS, read-out: GI50
# [9] = MCF7, 144 h, treated 6 days, SRB assay, mean±SD of 2 experiments (FIG. 1, 2), read-out: GI50 for MCF-7
# [10] = MCF7, Breast MCF-7, 3% FBS, read-out: GI50
# [11] = Prostate PC-3, 3% FBS, read-out: GI50
# [12] = A 172, Brain A172, 3% FBS, read-out: GI50
SMILES,"GI50 ([1]; SW626, SRB assay, mean±SD of 2 experiments (FIG. 2), read-out: GI50 for SW626)","GI50 [1, 6]","GI50 [2, 7]","GI50 [2, 8]","GI50 ([3]; MCF7, 144 h, MCF-7, normoxic condition (20% O2) for 6 days, read-out: GI50 Normoxi)","GI50 [3, 9]","GI50 [3, 10]","GI50 ([3]; MCF7, MCF-7, hypoxic condition (0.2% O2) for 2 days, then normoxic for 4 days, read-out: GI50 Hypoxia)","GI50 ([4]; PC-3, SRB assay, mean±SD of 2 experiments (FIG. 2), read-out: GI50 for PC-3)","GI50 [4, 11]","GI50 ([5]; A 172, 144 h, A172, normoxic condition (20% O2) for 6 days, read-out: GI50 Normoxi)","GI50 ([5]; A 172, A172, hypoxic condition (0.2% O2) for 2 days, then normoxic for 4 days, read-out: GI50 Hypoxia)","GI50 [5, 12]","GI50 ([5]; A 172, SRB assay, mean±SD of 2 experiments (FIG. 2), read-out: GI50 for A172)"
"CCCCCCCCc1ccc(NC(=O)N[C@H](CC(=O)[O-])C[N+](C)(C)C)cc1 [Example S7, (R)-3-(3-(4-octylphenyl)ureido)-4-(trimethylammonio)butanoate]",0.8 ± 0.7 µM,0.8 µM,1 ± 0.3 µM,0.5 µM,5.3 ± 1.3 µM,5 ± 1.3 µM,4.5 µM,2.5 ± 0.6 µM,0.8 ± 0.3 µM,0.7 µM,3.8 ± 0.5 µM,1.9 ± 0.8 µM,3 µM,3.8 ± 0.5 µM
"CCCCCCCOc1ccc(NC(=O)N[C@H](CC(=O)[O-])C[N+](C)(C)C)cc1 [Example S10, (R)-3-(3-(4-(heptyloxy)phenyl)ureido)-4-(trimethylammonio)butanoate]",–,15 µM,4.1 ± 1.3 µM,3.4 µM,–,1 ± 0.1 µM,44 µM,–,–,5.3 µM,–,–,40 µM,–
"CCCCCCCCCCOc1ccc(C(=O)N[C@H](CC(=O)O)C[N+](C)(C)C)cc1 [Example S63, (R)-3-(4-(decyloxy)benzamido)-4-(trimethylammonio)butanoate 2,2,2-trifluoroacetate]",–,1.2 µM,–,0.4 µM,–,–,0.4 µM,–,–,0.3 µM,–,–,0.9 µM,–
"CCCCCCCCCCc1ccc(C(=O)N[C@H](CC(=O)[O-])C[N+](C)(C)C)cc1 [Example S66, (R)-3-(4-decylbenzamido)-4-(trimethylammonio)butanoate]",–,1.5 µM,–,0.4 µM,–,–,0.1 µM,–,–,0.3 µM,–,–,1.8 µM,–
"CCCCCCCCCCOc1cccc(C(=O)N[C@H](CC(=O)[O-])C[N+](C)(C)C)c1 [Example S67, (R)-3-(3-(decyloxy)benzamido)-4-(trimethylammonio)butanoate]",–,2.7 µM,–,0.7 µM,–,–,0.7 µM,–,–,1.5 µM,–,–,3.6 µM,–
"CCCCCCCCCCc1ccc(S(=O)(=O)N[C@H](CC(=O)O)C[N+](C)(C)C)cc1 [Example S75, (R)-3-carboxy-2-(4-decylphenylsulfonamido)-N,N,N-trimethylpropan-1-aminium 2,2,2-trifluoroacetate]",–,4.1 µM,–,2.8 µM,–,–,11 µM,–,–,1.5 µM,–,–,18 µM,–
"CCCCCCCCCCCCc1ccc(NS(=O)(=O)N[C@H](CC(=O)O)C[N+](C)(C)C)cc1 [Example S89, (R)-3-(N-(4-dodecylphenyl)sulfamoylamino)-4-(trimethylammonio)-butanoate]",–,2.3 µM,–,1.4 µM,–,–,4.2 µM,–,–,1.6 µM,–,–,4.1 µM,–
"CCCCCCCCCCCCCCc1ccc(NS(=O)(=O)N[C@H](CC(=O)O)C[N+](C)(C)C)cc1 [Example S90, (R)-3-(N-(4-tetradecylphenyl)sulfamoylamino)-4-(trimethylammonio)-butanoate]",–,3.1 µM,–,1.1 µM,–,–,4 µM,–,–,1.3 µM,–,–,6.6 µM,–
